Source: US11026972B2, “Methods for generating macrophages with enhanced cancer phagocytosis” (Georgia State University Research Foundation, Inc., priority 2016, dated 2021)

B1: IL-10: phagocytic suppressive cytokine (protein, UniProt P22301 19-178, looked up)
Interleukin-10: SPGQGTQSENSCTHFPGNLPNMLRDLRDAFSRVKTFFQMKDQLDNLLLKESLLEDFKGYLGCQALSEMIQFYLEEVMPQAENQDPDIKAHVNSLGENLKTLRLRLRRCHRFLPCENKSKAVEQVKNAFNKLQEKGIYKAMSEFDIFINYIEAYMTMKIRN

Tests used:
[1] = test system: SIRPα^−/− and CD47^−/− mice; experiment: Acute anemia and splenomegaly in mice deficient of CD47-SIRPα-mediated inhibition under inflammatory conditions; format: in vivo, mouse; details: colitic SIRPα^−/− mice; 1% DSS, 10 days
Text: FIGS. 1A-1K illustrate our assessment of acute anemia in mice deficient of CD47-SIRPα-mediated inhibition under inflammatory conditions. FIG. 1A includes a schematic drawing of a wild type (WT) and targeted allele of SIRPα (“SIRPα”) and data related to the generation of SIRPα “knock out” (KO) mice. […] Western blot (WB) analysis confirmed the depletion of SIRPα (˜120 kDa) protein in bone marrow leukocytes from SIRPα^−/− mice. FIG. 1B includes a photograph of intestinal tissue and a line graph charting the change in body weight of mice in which colitis had been induced by treatment with 1% or 2% DSS. […] FIGS. 1C and 1D include data related to acute anemia and splenomegaly developed in SIRPα^−/− mice with colitis. WT mice and SIRPα^−/− mice treated with DSS (2% DSS for WT and 1% DSS for SIRPα^−/−) for 10 days were analyzed for the presence of […] (FIG. 1C) and the content of hemoglobin in peripheral blood (FIG. 1D). FIG. 1E includes a panel of photomicrographs in which hematoxylin and eosin (H&E) was used to stain sections of spleens from WT and SIRPα^−/− mice treated with 2% and 1% DSS for 10 days. The bar graph of FIG. 1E illustrates the hemoglobin content in the spleens of WT and SIRPα^−/− mice treated with water or DSS. FIG. 1F is a pair of line graphs showing the time course over which anemia developed in SIRPα^−/− mice when colitis was induced with DSS and the levels of IL-17 in the serum over that same period of time. FIG. 1G is a diagram showing that IL-17 neutralization ameliorates anemia and splenomegaly in SIRPα^−/− mice with colitis. An anti-IL-17 antibody (10 μg, i.v.) was given on days 6 and 8 (arrows) during DSS-induction of colitis. FIG. 1H is a diagram showing that IL-17-containing colitic serum induces acute anemia in SIRPα^−/− mice. Serum samples collected from healthy (Ctl.) and colitic WT mice (2% DSS, 10 d) were administered to healthy SIRPα^−/− mice (i.v., 3×, arrows) with or without an anti-IL-17 antibody. FIGS. 1I and 1J are illustrative graphs showing that IL-17 directly induces acute anemia and splenomegaly in SIRPα^−/− mice and Cd47^−/− mice. Healthy mice were given recombinant IL-17 (10 μg/kg, i.v.) on days 1 and 3 (arrows, FIG. 1J); anemia and splenomegaly were analyzed on day 5 (FIG. 1I) or in a time course manner (FIG. 1J). FIG. 1K includes diagrams showing that acute anemia and splenomegaly in SIRPα^−/− and Cd47^−/− mice under zymosan-peritonitis (3×, every other day), IL-6 administration ([…], i.v.), LPS (0.25 mg/kg, i.p.), and CFA (1×, s.c.) administrations. Error bars are ±SEM **P<0.01, ***P<0.001 vs. control or the beginning time point. Data presented in each panel represent at least three independent experiments with n≥4, if applicable.
Hemoglobin assay: To assay blood hemoglobin, 10 μl of whole blood were obtained from the tail vein followed by lysis in 1 ml distilled water. After centrifugation (13,000 rpm, 30 min), the hemoglobin-containing supernatants were collected and measured for the optical density at the wavelength of 540 nm.
Animal inflammation models: To induce peritonitis, mice (6-8 wk, 20-22 g) were intraperitoneally injected with 0.5 mg zymosan A (Sigma) in 0.5 ml sterile PBS followed by euthanasia at 2, 4, 6 and 8 hours. […] The colitic condition was then assessed by observing diarrhea, measuring body weight loss, increases of inflammatory cytokines, the shortage of the large intestine and intestinal tissue analyses (after euthanasia). […]

[2] = test system: CFSE-labeled CD47^+ or CD47^− RBCs in recipient mice; experiment: RBC adoptive transfer and in vivo clearance of CFSE-labeled RBCs; parameters: species or system mouse; details: SIRPα^−/− mice; 1% DSS for 8 d or directly injected with IL-17; 24 h
Text: FIGS. 2A-2E includes data related to macrophage phagocytosis in vivo assessed by adoptive transfer experiments. FIGS. 2A-C are illustrative graphs showing clearance of adoptively transferred CD47-positive (Cd47^+) or CD47-negative (Cd47^−) RBC in recipient mice. […] Error bars are ±SEM. **P<0.01, ***P<0.001 vs. WT mice clearance of Cd47^+ RBCs. […] Mice treated with DSS (1% for SIRPα^−/− mice, 2% for WT and Cd47^−/− mice) for 8 d (d8) were transfused with CFSE-RBCs followed by determination of RBC clearance after 24 h. FACS data of Cd47^+ RBCs and Cd47^− RBCs in different mice at 30 min and 24 h after transfer were selectively shown. Total RBC phagocytosis was calculated based on the rates of CFSE-RBC clearance and the fact that SIRPα^−/− mice eliminate both Cd47^− RBC and Cd47^+ RBC, whereas WT mice and Cd47^−/− mice eliminate only Cd47^− RBCs. […] Mice treated once with IL-17 (10 μg/kg, i.v.) were transfused with CFSE-labeled Cd47^+ or Cd47^− RBCs a day later. Error bars are ±SEM. **P<0.01, ***P<0.001 vs. control or the initial time point. Data presented in each panel represent at least three independent experiments with n≥4, if applicable.
Adoptive transfer and in vivo clearance: CD47-expressing (CD47^+) RBC freshly collected from WT or SIRPα^−/− mice, and CD47-null (CD47^−) RBC collected from CD47^−/− mice were labeled with carboxyfluorescein succinimidyl ester (CFSE). After washing, about 1×10^9 RBC suspended in 200 μl sterile PBS were transfused into recipient mice by intravenous (i.v.) injection. Blood samples (5 μl) were then collected 30 min after the blood transfusion and the CFSE-labeled RBC in the circulation was assessed by FACS analyses. Blood samples (5 μl each) were then collected at later time points to assess the clearance of CFSE-labeled RBC as compared to that found at 30 min. For each sample, at least 50,000 RBC were examined by FACS. […] Clearance of CFSE-labeled cells in the circulation and the spleen were analyzed by FACS analyses of blood samples and splenocytes. […]

[3] = test system: splenic macrophages, PEMs and BMDMs; experiment: Ex vivo macrophage phagocytosis toward RBCs and other self-cells after activation; format: cell-based, mouse; details: various concentrations of IL-10
Procedure: FIGS. 3A-3H include data related to our experiments assaying macrophage phagocytosis ex vivo. FIGS. 3A and 3B show macrophage phagocytosis of RBCs. Freshly isolated splenic macrophages (MØ) and peritoneal macrophages (PEM) and in vitro-derived BMDM (bone marrow-derived macrophages) were tested for phagocytosis toward CFSE-labeled Cd47^+ or Cd47^− RBCs. […] FIGS. 3F and 3G illustrate LPS and IL-17-activated PEM phagocytosis toward splenocytes (FIG. 3F), B16, and EL4 (FIG. 3G). Error bars are ±SEM. **P<0.01, ***P<0.001 vs. no treatment controls. […] PEM lavaged without (ctl.) or with Brewer thioglycollate (3%, i.p.) elicitation was tested. Error bars are ±SEM. ***P<0.001 vs. control PEM. Data presented in each panel represent at least three independent experiments with n≥4, if applicable.
FIGS. 4A-4E include data related to our experiments on macrophage phagocytic plasticity. FIG. 4A is a panel of illustrative line graphs showing that IL-10 inhibits macrophage phagocytosis toward “self.” PEMs were treated with LPS and activating cytokines along with various concentrations of IL-10 before testing their ability to phagocytose RBCs. FIG. 4B illustrates the phagocytic plasticity of WT red pulp macrophages. […] Treatments of cultured macrophages with LPS and IL-17 re-elicited their phagocytosis toward RBCs. […] Error bars are ±SEM. ***P<0.001 vs. freshly isolated splenic macrophages. FIG. 4D includes microscopic images of RBC phagocytosis by LPS- and IL-17-treated splenic macrophages. […] WT PEMs treated with LPS or IL-17 were further treated with Cd47^+ RBCs or Cd47-AP (10 min, 37° C.) followed by cell lysis, SIRPα immunoprecipitation, and WB detection of SIRPα phosphorylation (SIRPα^pY) and SHP-1 association. Data presented in each panel represent at least three independent experiments with n≥4, if applicable.
Ex vivo macrophage phagocytosis: Mouse spleens were harvested and minced in cold HBSS followed by passing through nylon meshes. The spleen cells in suspensions were collected by centrifugation followed by washing. After lysis of RBC, splenocytes were plated in cell culture dishes in DMEM with 10% FBS and cultured for 2 h followed by removal of non-adherent cells. The adherent cells, ˜70% being macrophages as determined by anti-F4/80 staining, were tested for phagocytosis. For phagocytosis of RBC or other tissue cells, targeted cells were labeled with CFSE prior to addition into the macrophage-containing wells. Macrophages and target cells, at a ratio of 1:5-10 for RBC or 1:1-2 for other cells, were co-incubated for 30 min at 37° C. followed by gently washing. Macrophage phagocytosis of target cells was then analyzed by fluorescence microscopy and/or by FACS. To better recognize macrophages, macrophages in wells were labeled with an anti-F4/80 or an anti-CD11b antibody. Alternatively, the freshly isolated splenocytes in suspension were incubated with CFSE-labeled RBC and other phagocytic targets for 30 min at 37° C. Macrophage phagocytosis was then determined by FACS after labeling macrophages with anti-F4/80. To test phagocytosis of apoptotic cells, B16 cells were irradiated by UV for 150 seconds at 50 J/m^2 strength. Apoptosis was analyzed at 2, 4, 6, 8 and 18 h post UV irradiation by labeling of the cells with anti-phosphatidylserine (PS) antibody (data not shown) or FITC-conjugated annexin V (data not shown). Cells that were confirmed to be apoptotic were trypsinized, labeled with CFSE, and then co-incubated with macrophages for 30 min at 37° C. After gentle washing, phagocytosis was analyzed by fluorescence microscopy and/or FACS. To test phagocytosis of bacteria and the fungal product zymosan, AlexaFluor-conjugated E.coli strain […] (2 μl suspension, ˜2 μg) or zymosan bioparticles (1 μl suspension, ˜2 μg) (both from Invitrogen) were incubated with macrophages for 30 min followed by washing and analyses. Similar procedures were performed to test phagocytosis of macrophages from various sources. […]

[4] = test system: Syk; experiment: Syk phosphorylation at Y519/520 in PEMs; format: cell-based, mouse
Procedure: FIGS. 5A-5H include data related to our experiments on the role of Syk in phagocytic activation. […] PEMs were treated with LPS and cytokines in the presence of various inhibitors. After washing, inhibitor-free macrophages were tested for phagocytosis toward RBCs. […] PEMs treated with LPS and activating cytokines, or together with IL-10, were tested for total Syk and phosphorylated Syk (Syk^pY, specific at Y519/520). FIG. 5D describes PMA-induced macrophages phagocytosis toward RBCs. WT and SIRPα^−/− PEMs were treated with PMA (37° C., 30 min) before testing phagocytosis toward RBCs. FIG. 5E is a schematic depiction of PKC-Syk-mediated macrophage phagocytic activation toward self. […] Left: Inhibition of Syk by piceatannol and R406 prevented PMA-induced phagocytic activation. […] Error bars are ±SEM. ***P<0.001 vs. the respective controls. […] LPS-treated WT PEMs were further briefly treated with pervanadate before testing for phagocytosis toward RBCs. Error bars are ±SEM. ***P<0.001 vs. the respective controls. […] Data presented in each panel represent at least three independent experiments with n≥4, if applicable.
Multiple pharmacological inhibitors were tested for their effects on LPS and cytokine-induced activation of macrophage phagocytosis toward self. […] For example, inhibition of JAKs blocked IL-6 and IL-17, but not LPS and TNFα, for activation of PEM phagocytosis. […]

Row | Molecule | peripheral hemoglobin reduction [1] | clearance of transferred CD47^+ and CD47^− RBCs [2] [%] | LPS-, IL-17-, IL-6-, TNFα-, and IL-1β-induced activation of PEM phagocytosis toward RBCs [3] | Syk phosphorylation (Syk^PY, Y519/520) [4]
1 | dextran sodium sulfate [DSS] | 40-50 | ~50 |  | 
2 | B1 |  |  | dose-dependently inhibited | counter-repressed Syk phosphorylation
